From patent publication US20220257775A1 (GLYCOMIMETICS, INC., priority 2019, published 2022) come the findings set out here.

This assay has as its target T1, recombinant human E-selectin/CD63E Fc Chimera (Homo sapiens, UniProt P16581).
T1 construct: Fc (human IgG Fc fusion partner); purchased R & D systems
The assay can be described thus: E-Selectin Activity - Analysis by SPR. Format: binding. The note with it: Biacore X100, E-selectin captured on anti-human IgG (Fc) chip. On the procedure: Surface Plasmon Resonance (SPR) measurements were performed on a Biacore X100 instrument (GE Healthcare). A CM5 sensor chip (GE Healthcare) was used for the interaction between E-selectin and GMI compound. Anti-human IgG (Fc) antibody (GE Healthcare) was immobilized onto the chip by amine coupling according to the manufacturer's instructions. In brief, after a 7-min injection (flow rate of 5 μl/min) of 1:1 mixture of N-ethyl-N′-(3-dimethylaminopropyl) carbodiimide hydrochloride and N-hydroxysuccinimide, anti-human IgG (Fc) antibody (25 μg/ml in 10 mM sodium acetate buffer, pH 5.0) was injected using a 6-min injection at 5 μl/min. Remaining activated groups were blocked by injecting 1 M ethanolamine/HCl, pH 8.5. The recombinant human E-selectin/CD63E Fc Chimera (50 μg/ml) (R & D systems) was injected into the experimental cell until 6000-7000 RU was captured onto the antibody surface. No recombinant human E-selectin/CD63E was injected into the control cell. Increasing concentrations of GMI compound samples were injected at 30 μl/min into both flow cells and all sensorgrams were recorded against the control. Regeneration of the anti-human IgG (Fc) surface was achieved by injecting 3M magnesium chloride, followed by 50 mM sodium hydroxide. Data were analyzed using Biacore X100 evaluation/BIA evaluation 4.1.1 software (GE Healthcare) and Graphad prism 6 software.

T1 sequence (P16581 with tags, fused parts or gaps limits assumed): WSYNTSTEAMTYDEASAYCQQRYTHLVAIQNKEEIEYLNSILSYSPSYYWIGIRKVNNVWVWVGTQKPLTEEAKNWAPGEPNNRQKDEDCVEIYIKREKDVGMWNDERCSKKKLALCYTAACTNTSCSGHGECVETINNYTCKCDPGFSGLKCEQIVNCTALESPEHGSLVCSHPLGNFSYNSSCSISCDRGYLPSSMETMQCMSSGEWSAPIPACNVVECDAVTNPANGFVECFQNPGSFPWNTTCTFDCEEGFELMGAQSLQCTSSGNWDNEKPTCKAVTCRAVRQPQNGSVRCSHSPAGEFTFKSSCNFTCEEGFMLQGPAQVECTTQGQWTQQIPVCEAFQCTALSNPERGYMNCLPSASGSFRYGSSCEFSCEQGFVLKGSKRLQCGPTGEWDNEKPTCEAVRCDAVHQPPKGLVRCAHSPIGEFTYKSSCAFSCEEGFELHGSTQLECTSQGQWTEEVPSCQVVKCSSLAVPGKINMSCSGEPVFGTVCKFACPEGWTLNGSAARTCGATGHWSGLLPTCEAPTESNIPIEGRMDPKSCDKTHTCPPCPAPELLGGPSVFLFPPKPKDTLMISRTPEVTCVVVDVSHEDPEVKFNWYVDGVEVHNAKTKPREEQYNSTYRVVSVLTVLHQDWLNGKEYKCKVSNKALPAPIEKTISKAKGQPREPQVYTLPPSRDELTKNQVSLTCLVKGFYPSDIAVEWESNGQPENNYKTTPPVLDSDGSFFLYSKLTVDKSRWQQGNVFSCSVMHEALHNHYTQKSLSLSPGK

For the molecule `CCC1CC(C(=O)NCCNC(=O)c2cn(CCOCCOCCOCCn3cc(C(=O)NCCNC(=O)C4CC(CC)C(OC5OC(C)C(O)C(O)C5O)C(OC5OC(CO)C(O)C(OC(CC6CCCCC6)C(=O)N6CCC6)C5NC(C)=O)C4)nn3)nn2)CC(OC2OC(CO)C(O)C(OC(CC3CCCCC3)C(=O)N3CCC3)C2NC(C)=O)C1OC1OC(C)C(O)C(O)C1O` (stereo not drawn) [Compound 29], the Kd was 3.2 nM.

Take `CC[C@H]1C[C@@H](C(=O)NCCNC(=O)Cn2cc(C(=O)NCCNC(=O)[C@@H]3C[C@H](CC)[C@@H](O[C@@H]4O[C@@H](C)[C@@H](O)[C@@H](O)[C@@H]4O)[C@H](O[C@@H]4O[C@H](CO)[C@H](O)[C@H](O[C@@H](CC5CCCCC5)C(=O)O)[C@H]4NC(C)=O)C3)nn2)C[C@@H](O[C@@H]2O[C@H](CO)[C@H](O)[C@H](O[C@@H](CC3CCCCC3)C(=O)O)[C@H]2NC(C)=O)[C@@H]1O[C@@H]1O[C@@H](C)[C@@H](O)[C@@H](O)[C@@H]1O` [Compound 31]: the Kd is 3.3 nM.

Consider `CC[C@H]1C[C@@H](C(=O)NCCNC(=O)NCCNC(=O)[C@@H]2C[C@H](CC)[C@@H](O[C@@H]3O[C@@H](C)[C@@H](O)[C@@H](O)[C@@H]3O)[C@H](O[C@@H]3O[C@H](CO)[C@H](O)[C@H](O[C@@H](CC4CCCCC4)C(=O)O)[C@H]3NC(C)=O)C2)C[C@@H](O[C@@H]2O[C@H](CO)[C@H](O)[C@H](O[C@@H](CC3CCCCC3)C(=O)O)[C@H]2NC(C)=O)[C@@H]1O[C@@H]1O[C@@H](C)[C@@H](O)[C@@H](O)[C@@H]1O` [Compound 32], for which the dissociation constant Kd came to 8.8 nM.

Turning to `CCC1CC(C(=O)NCCNC(=O)c2cn(CCOCCC(=O)NCCCC[C@H](NC(=O)CCOCCn3cc(C(=O)NCCNC(=O)C4CC(CC)[C@@H](O[C@@H]5OC(C)[C@@H](O)[C@H](O)C5O)[C@H](O[C@@H]5O[C@@H](CO)[C@H](O)C(O[C@@H](CC6CCCCC6)C(=O)O)C5NC(C)=O)C4)nn3)C(=O)OCc3ccccc3)nn2)C[C@@H](O[C@@H]2O[C@@H](CO)[C@H](O)C(O[C@@H](CC3CCCCC3)C(=O)O)C2NC(C)=O)[C@@H]1O[C@@H]1OC(C)[C@@H](O)[C@H](O)C1O` (stereo partly drawn) [Compound 37], the Kd came to 3.9 nM.

For `CCC1CC(C(=O)NCCNC(=O)c2cn(CCOCCC(=O)NCCCC[C@H](NC(=O)CCOCCn3cc(C(=O)NCCNC(=O)C4CC(CC)[C@@H](O[C@@H]5OC(C)[C@@H](O)[C@H](O)C5O)[C@H](O[C@@H]5O[C@@H](CO)[C@H](O)C(O[C@@H](CC6CCCCC6)C(=O)O)C5NC(C)=O)C4)nn3)C(=O)O)nn2)C[C@@H](O[C@@H]2O[C@@H](CO)[C@H](O)C(O[C@@H](CC3CCCCC3)C(=O)O)C2NC(C)=O)[C@@H]1O[C@@H]1OC(C)[C@@H](O)[C@H](O)C1O` (stereo partly drawn) [Compound 38], the dissociation constant (Kd) came out at 6.4 nM.

`CCC1CC(C(=O)NCCNC(=O)CCC(=O)NCCN(CCNC(=O)CCC(=O)NCCNC(=O)C2CC(CC)C(OC3OC(C)C(O)C(O)C3O)C(OC3OC(CO)C(O)C(OC(CC4CCCCC4)C(=O)O)C3NC(C)=O)C2)CCNC(=O)CCC(=O)NCCNC(=O)C2CC(CC)C(OC3OC(C)C(O)C(O)C3O)C(OC3OC(CO)C(O)C(OC(CC4CCCCC4)C(=O)O)C3NC(C)=O)C2)CC(OC2OC(CO)C(O)C(OC(CC3CCCCC3)C(=O)O)C2NC(C)=O)C1OC1OC(C)C(O)C(O)C1O` (stereo not drawn) [Compound 42]: the dissociation constant Kd turned out to be 1.5 nM.
